Tests used:
[1] = ABA stability in human serum (luciferase biofunctional readout); type: in vitro ADME
Procedure: FIG. 3C provides the results of a stability test of ABA in cell culture conditions. CHO cells were pre-transfected with the activation and reporter DNA constructs for 24 hours. 100 μM ABA was then added to the culture and cells were assayed for luciferase activity after 10 hours. During the 10-hour incubation, the cell culture media were replaced with media containing freshly added ABA every 1, 2.5, 5 hour or no replacement. FIG. 4A illustrates the results of an experiment in which human serum pre-incubated ABA was used to induce luciferase transcription. ABA was incubated with pure non-heat inactivated human serum at 37° C. for indicated time period. ABA containing serum was then added to the CHO cell culture to a final 100 μM ABA concentration for 25 hours and cells were assayed for luciferase activity. The cells were pre-transfected with the activation and reporter DNA constructs for 24 hours. FIG. 4B illustrates the results of an experiment in which fetal bovine serum pre-incubated ABA was used to induce luciferase transcription. ABA was incubated with pure heat inactivated fetal bovine serum at 37° C. for indicated time period. ABA containing serum was then added to the CHO cell culture to a final 100 μM ABA concentration for 10 hours and cells were assayed for luciferase activity. The cells were pre-transfected with the activation and reporter DNA constructs for 24 hours.
In plants, ABA had been reported to be unstable due to active enzymatic degradation (Cutler, A. J. and Krochko, J. E. (1999) Formation and breakdown of ABA. Trends Plant Sci. 4, 472-478). […] The activity of residual ABA in the serum was measured by its ability to induce the transcriptional activation of the luciferase reporter in cells expressing the ABA-activator cassette. […] Using this assay, the bioavailability in mice was evaluated. […]

[2] = subchronic toxicity studies; cited from earlier work

CC1=CC(=O)CC(C)(C)C1(O)/C=C/C(C)=C/C(=O)O (stereo not shown) [ABA, abscisic acid]
reduction in ability to induce transcription of luciferase ([1]; pure human serum, 37° C., up to 48 hours): no significant reduction
time ABA is stable in human serum ([1]; pure non-heat inactivated human serum, 37° C.): at least 46 hours
stability in serum ([1]; serum, over 48 hours): stable
no observable adverse effect level (NOAEL) [2]: 20,000 mg/kg per day

Reference: patent US20130158098A1, “Alkenyl Substituted Cycloaliphatic Compounds as Chemical Inducers of Proximity” (priority 2010, published 2013)
